{
  "source": "patent US12390435B2",
  "about": "“Electrophiles and electrophile pro-drugs as RAD51 inhibitors” (University of Pittsburgh—Of the Commonwealth System of …, priority 2018, dated 2025)",
  "type_in_all_cases": "cell-based",
  "key": {"[1]": {"test_system": "single strand annealing (SSA)", "experiment": "GFP reporter assay for single strand annealing", "details": "5 μM, 48 h", "description": "FIG. 13B is GFP-reporter assays examining effects of OA-NO2 on different DNA DSB repair pathways described in FIG. 14A. U2OS cells containing the GFP-reporter construct DR-GFP were transfected with an I-SceI plasmid and treated with vehicle (gray), 5 μM OA (green) or 5 μM OA-NO2 (red). The number of GFP positive cells were detected by flow cytometry at 48 h. GFP-reporter measuring NHEJ: n=3, SSA: n=3; HDR: n=3; Alt-EJ: n=1.\n(§1) Measurements of NHEJ, HR, Alt-EJ and SSA assays were performed as previously described. HR activity was measured by counting GFP-positive cells by flow cytometry at the MWRI flow cytometry core using a BD LSRII (BD Biosciences). RAD51 overexpressing cells were generated by stable transfection of pLVX RAD51 IRES Neo and selection with geneticin (Invitrogen)."}, "MCF7 cells": {"test_system": "MCF7 cells", "experiment": "Cell growth assay (FluoReporter dsDNA)", "details": "Homo sapiens, 48 hr, 0-15 μM", "description": "(§2) Cells were plated at a cell density of 5000 cells per well in 96-well plates. […] Cells were counted using the FluoReporter dsDNA quantitation kit (Molecular Probes) according to the manufacturer's instructions. Fluorescence was measured using a SpectraMax M2 plate reader (Molecular Devices). […] Three individual experiments were done (n=5/each), and statistical comparison between two cell lines across doses was determined by two-way analysis of variance followed by Tukey post-test."}, "MCF-10A cells": {"test_system": "MCF-10A cells", "experiment": "Cell growth assay (FluoReporter dsDNA)", "details": "for IC50: Homo sapiens, MCF-10A", "description": "as §2"}, "MDA-MB-231 cells [2]": {"test_system": "MDA-MB-231 cells", "experiment": "Cell growth assay (FluoReporter dsDNA)", "details": "Homo sapiens, MDA-MB-231; 48 hr, 0-15 μM", "description": "as §2"}, "MDA-MB-468 cells": {"test_system": "MDA-MB-468 cells", "experiment": "Cell growth assay (FluoReporter dsDNA)", "details": "Homo sapiens, 48 hr, 0-15 μM", "description": "as §2"}, "TNBC cells": {"test_system": "TNBC cells", "experiment": "Cellular H2O2 production", "details": "short term and extended (6 hr) treatment"}, "[3]": {"test_system": "homologous recombination (DR-GFP, U2OS cells)", "experiment": "DR-GFP HR reporter assay in U2OS cells", "description": "as §1\nU2OS cells were prepared as above, but 5 h following compound treatment, cells were transferred into the Incucyte Zoom (Essen) live-cell imaging automated fluorescence microscope at 37° C. with 5% CO2. Cell confluence and green object count per mm2 were determined using Incucyte Zoom software. Green object count per field was normalized to cell confluency to correct for NO2—OA-induced effects on cell proliferation.\nNO2-OA-dependent effects on HR DNA repair were further investigated by utilizing a DRGFP reporter assay. This analysis quantifies intracellular recombination of an integrated cDNA cassette of two tandem non-fluorescent GFP constructs following introduction of an I-SceI cleavage to the system by measuring the fluorescent GFP protein that is produced following successful recombination. […] A novel strategy was used to measure the kinetics of changes in HR in live cells by using automated fluorescence microscopy to track the emergence of GFP positive cells over time in monolayers, as opposed to making static measurements of detached cells using flow cytometry. […] This was indicated by an absence of changes in the number of GFP positive cells following I-SceI cleavage after 48 h by flow cytometric analysis or over 68 h by live-cell fluorescence microscopy (FIGS. 2C, 2D)."}, "MDA-MB-231 cells [4]": {"test_system": "MDA-MB-231 cells", "experiment": "CellTiter-Glo relative growth (luminescent ATP)", "description": "(§3) HEK 293T, MDA-MB-231, MDA-MB-468, Hs578T and BT-549 cells (American Type Culture Collection) were cultured at 37° C. with 5% CO2 in Dulbecco's modified Eagle's medium containing (DMEM) (Gibco) supplemented with 5% FBS (HyClone), 100 units/ml penicillin, […] streptomycin (Gibco), non-essential amino acids (Gibco) and 2 mM 1-glutamine (Gibco). Doxorubicin (Selleckchem), cisplatin (Sigma) or olaparib (Selleckchem) were dissolved in DMSO or DMF (cisplatin). […] Pure NO2-OA was diluted in DMSO and added to cells after solvation in assay media. Relative cell numbers were compared by measuring the luminescent signal generated by ATP using the CellTiter-Glo (Promega) assay. Cells were plated in a 96-well plate at 5,000 (MDA-MB-231) or 6,600 (BT549 or Hs578T) cells per well.\n(§4) Data represent the mean±SEM from 3 independent experiments unless otherwise noted. A p value<0.05 was considered statistically significant. Non-linear curves were generated in GraphPad Prism 7.0 (GraphPad Software, La Jolla, CA, USA) for statistical analysis. EC50 values and standard error were calculated from three independent experiments utilizing a non-linear dose response variable slope model. Significance was tested by one-way ANOVA for multiple groups with Tukey posttest or by t-test when groups were less than three. RAD51 foci number was analyzed with ImageJ. Nuclear boundaries were individually identified in more than 50 cells per treatment group in three independent experiments.\n(§5) The growth of BT-549 cells was not affected. […] MDA-MB-231 cells were plated in a 96 well plate and treated with talazoparib (0.01-75 μM) plus OA-NO2 or NDA-NO2 (0.2-12 μM) daily for 3 days. Growth inhibition (relative cell numbers) of MDA-MB-231 cells was determined by luminescent detection of ATP (CellTiter-Glo) (FIG. 1K)."}, "BT-549 cells": {"test_system": "BT-549 cells", "experiment": "CellTiter-Glo relative growth (luminescent ATP)", "description": "as §3, §4, §5"}, "Hs578T cells": {"test_system": "Hs578T cells", "experiment": "CellTiter-Glo relative growth (luminescent ATP)", "description": "as §3, §4, §5"}, "[5]": {"test_system": "NHEJ (EJ5-GFP, U2OS cells)", "experiment": "EJ5-GFP NHEJ reporter assay in U2OS cells", "details": "5 μM, 48 h flow cytometry or 68 h live-cell microscopy", "description": "as §1\nU2OS cells were prepared as above, but 5 h following compound treatment, cells were transferred into the Incucyte Zoom (Essen) live-cell imaging automated fluorescence microscope at 37° C. with 5% CO2. Cell confluence and green object count per mm2 were determined using Incucyte Zoom software. […]\nNO2-OA-dependent effects on HR DNA repair were further investigated by utilizing a DRGFP reporter assay. This analysis quantifies intracellular recombination of an integrated cDNA cassette of two tandem non-fluorescent GFP constructs following introduction of an I-SceI cleavage to the system by measuring the fluorescent GFP protein that is produced following successful recombination. […] A novel strategy was used to measure the kinetics of changes in HR in live cells by using automated fluorescence microscopy to track the emergence of GFP positive cells over time in monolayers, as opposed to making static measurements of detached cells using flow cytometry. […]"}, "[6]": {"details": "cisplatin 72 h plus daily 2 μM NO2-OA"}, "[7]": {"details": "doxorubicin 72 h plus daily 2 μM NO2-OA"}, "[8]": {"details": "olaparib 72 h plus daily 2 μM NO2-OA"}},
  "note": "Read-outs that look alike come from different tables or passages of the source.",
  "data": [
    {"compound": "CCCCCCCCC(=CCCCCCCCC(=O)O)[N+](=O)[O-]", "note": "[NO2-OA, 10-nitro-octadec-9-enoic acid]", "values": [
      {"measurement": "effect on single strand annealing", "setting": "[1]", "value": "also inhibits single strand annealing"},
      {"measurement": "IC50", "setting": "MCF7 cells", "value": "11.6 ± 3.59", "unit": "µM"},
      {"measurement": "IC50", "setting": "MCF-10A cells; read-out: IC50 cell growth, only NO2-OA treatment, probenecid study, no probenecid, 0-25 μM 48 hr", "value": "14.2 ± 1.05", "unit": "µM"},
      {"measurement": "IC50", "setting": "MCF-10A cells; 48 hr, 0-15 μM, read-out: IC50 cell growth", "value": "7.7 ± 1.93", "unit": "µM"},
      {"measurement": "decrease of IC50 by probenecid", "setting": "MCF-10A cells; probenecid pretreated versus only NO2-OA", "value": 2, "unit": "fold"},
      {"measurement": "IC50", "setting": "MDA-MB-231 cells [2]", "value": "2.7 ± 0.11", "unit": "µM"},
      {"measurement": "IC50", "setting": "MDA-MB-468 cells", "value": "1.6 ± 0.11", "unit": "µM"},
      {"measurement": "cellular rates of H2O2 production", "setting": "TNBC cells", "value": "did not significantly impact cellular rates of H2O2 production"},
      {"measurement": "HR activity in RAD51 overexpressing versus control reporter cells", "setting": "[3]; 5 μM NO2-OA", "value": "significantly increased"},
      {"measurement": "decrease in number of GFP-positive cells (HR)", "setting": "[3]; daily 5 μM, over 68 h, live-cell microscopy", "value": 2, "unit": "fold"},
      {"measurement": "decrease in number of GFP positive cells (HR)", "setting": "[3]; daily NO2-OA, 48 h, flow cytometry, versus OA or vehicle", "value": 2, "unit": "fold"},
      {"measurement": "Growth inhibition", "setting": "MDA-MB-231 cells [4]; 12 or 6.0 μM plus 0.01-75 μM talazoparib, daily for 3 days", "value": "~100", "unit": "%"},
      {"measurement": "EC50 for growth inhibition, compared between compounds", "setting": "MDA-MB-231 cells [4]; ATP Celltiter Glo proliferation assay, n=3", "value": "higher EC50"},
      {"measurement": "EC50", "setting": "MDA-MB-231 cells [4]; Homo sapiens, MDA-MB-231, 72 h, read-out: EC50 for growth inhibition", "value": "3.66 ± 0.14", "unit": "µM"},
      {"measurement": "increased growth inhibition of cisplatin", "setting": "MDA-MB-231 cells [4]; [6]", "value": 6, "unit": "fold"},
      {"measurement": "enhanced growth inhibition of doxorubicin", "setting": "MDA-MB-231 cells [4]; [7]", "value": 7, "unit": "fold"},
      {"measurement": "enhanced growth inhibition of olaparib", "setting": "MDA-MB-231 cells [4]; [8]", "value": 5, "unit": "fold"},
      {"measurement": "Combination index (CI), Chou-Talalay", "setting": "MDA-MB-231 cells [4]; with talazoparib (0.01-75 μM), 0.2-12 μM, daily 3 days, CI<1 is synergistic", "value": "< 1"},
      {"measurement": "EC50", "setting": "BT-549 cells; Homo sapiens, BT-549, 72 h, read-out: EC50 for growth inhibition", "value": "3.78 ± 0.48", "unit": "µM"},
      {"measurement": "growth inhibition with cisplatin, suppressed", "setting": "BT-549 cells; cisplatin 72 h plus daily 2 μM NO2-OA, printed as suppressed", "value": 1.4, "unit": "fold"},
      {"measurement": "enhanced growth inhibition of doxorubicin", "setting": "BT-549 cells; [7]", "value": "not affected"},
      {"measurement": "enhanced growth inhibition of olaparib", "setting": "BT-549 cells; [8]", "value": 3, "unit": "fold"},
      {"measurement": "EC50", "setting": "Hs578T cells; Homo sapiens, Hs-578T, 72 h, read-out: EC50 for growth inhibition", "value": "1.98 ± 0.52", "unit": "µM"},
      {"measurement": "increased growth inhibition of cisplatin", "setting": "Hs578T cells; [6]", "value": 3, "unit": "fold"},
      {"measurement": "enhanced growth inhibition of doxorubicin", "setting": "Hs578T cells; [7]", "value": 5, "unit": "fold"},
      {"measurement": "enhanced growth inhibition of olaparib", "setting": "Hs578T cells; [8]", "value": 17, "unit": "fold"},
      {"measurement": "effect on NHEJ (GFP positive cells)", "setting": "[5]", "value": "no effect"}
    ]}
  ]
}
